Source: ChEMBL document CHEMBL3352017, “2-Guanidinoquinazolines as new inhibitors of the STAT3 pathway” (Bioorg Med Chem Lett, 2014)
Active and inactive are the calls of the source. No cut-off for these calls is given here.

What was measured:
[1] = Selectivity index, ratio of IC50 for IFNgamma-induced STAT1 pathway in human Cal33 cells to IC50 for IL-6-induced STAT3 pathway in human Cal33 cells; assay type: cell-based; conditions: CAL-33
cells [2] = conditions: Homo sapiens
[3] = molecular target: T1, Signal transducer and activator of transcription 1-alpha/beta (Homo sapiens) (UniProt P42224); assay: Inhibition of IFNgamma-induced STAT1 pathway in human Cal33 cells at 50 uM; assay type: cell-based; conditions: CAL-33
T1 sequence (whole entry): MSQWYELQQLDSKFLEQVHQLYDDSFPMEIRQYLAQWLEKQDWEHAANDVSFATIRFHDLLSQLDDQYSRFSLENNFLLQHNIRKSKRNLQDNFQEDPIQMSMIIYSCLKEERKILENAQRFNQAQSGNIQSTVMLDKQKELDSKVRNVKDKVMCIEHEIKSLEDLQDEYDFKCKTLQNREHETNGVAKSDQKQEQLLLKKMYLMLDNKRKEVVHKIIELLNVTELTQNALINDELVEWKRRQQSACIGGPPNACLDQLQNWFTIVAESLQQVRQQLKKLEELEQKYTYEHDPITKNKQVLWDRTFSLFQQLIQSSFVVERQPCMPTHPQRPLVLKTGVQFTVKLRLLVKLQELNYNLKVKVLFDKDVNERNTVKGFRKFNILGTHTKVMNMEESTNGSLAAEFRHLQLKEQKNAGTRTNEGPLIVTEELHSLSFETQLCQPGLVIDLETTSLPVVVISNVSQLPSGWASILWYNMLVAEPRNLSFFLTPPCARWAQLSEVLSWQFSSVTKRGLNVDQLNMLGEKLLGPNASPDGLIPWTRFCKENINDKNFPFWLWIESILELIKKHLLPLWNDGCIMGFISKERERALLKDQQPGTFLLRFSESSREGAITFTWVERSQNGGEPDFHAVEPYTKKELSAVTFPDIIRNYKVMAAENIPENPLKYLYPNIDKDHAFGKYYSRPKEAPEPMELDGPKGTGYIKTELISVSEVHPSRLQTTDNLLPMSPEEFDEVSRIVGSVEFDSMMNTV

[4] = molecular target: Tyrosine-protein kinase JAK1 (Homo sapiens) (UniProt P23458); assay: Inhibition of JAK1 phosphorylation in human Cal33 cells by Western blot analysis; assay type: cell-based; conditions: CAL-33
cells [5] = conditions: Homo sapiens, CAL-33
cells [6] = conditions: Homo sapiens, OSC19
FaDu = assay: cells; conditions: Homo sapiens
[7] = molecular target: Tyrosine-protein kinase JAK2 (Homo sapiens) (UniProt O60674); assay: Inhibition of JAK2 phosphorylation in human Cal33 cells by Western blot analysis; assay type: cell-based; conditions: CAL-33
Sequence of Tyrosine-protein kinase JAK2 (Homo sapiens) (O60674 whole entry): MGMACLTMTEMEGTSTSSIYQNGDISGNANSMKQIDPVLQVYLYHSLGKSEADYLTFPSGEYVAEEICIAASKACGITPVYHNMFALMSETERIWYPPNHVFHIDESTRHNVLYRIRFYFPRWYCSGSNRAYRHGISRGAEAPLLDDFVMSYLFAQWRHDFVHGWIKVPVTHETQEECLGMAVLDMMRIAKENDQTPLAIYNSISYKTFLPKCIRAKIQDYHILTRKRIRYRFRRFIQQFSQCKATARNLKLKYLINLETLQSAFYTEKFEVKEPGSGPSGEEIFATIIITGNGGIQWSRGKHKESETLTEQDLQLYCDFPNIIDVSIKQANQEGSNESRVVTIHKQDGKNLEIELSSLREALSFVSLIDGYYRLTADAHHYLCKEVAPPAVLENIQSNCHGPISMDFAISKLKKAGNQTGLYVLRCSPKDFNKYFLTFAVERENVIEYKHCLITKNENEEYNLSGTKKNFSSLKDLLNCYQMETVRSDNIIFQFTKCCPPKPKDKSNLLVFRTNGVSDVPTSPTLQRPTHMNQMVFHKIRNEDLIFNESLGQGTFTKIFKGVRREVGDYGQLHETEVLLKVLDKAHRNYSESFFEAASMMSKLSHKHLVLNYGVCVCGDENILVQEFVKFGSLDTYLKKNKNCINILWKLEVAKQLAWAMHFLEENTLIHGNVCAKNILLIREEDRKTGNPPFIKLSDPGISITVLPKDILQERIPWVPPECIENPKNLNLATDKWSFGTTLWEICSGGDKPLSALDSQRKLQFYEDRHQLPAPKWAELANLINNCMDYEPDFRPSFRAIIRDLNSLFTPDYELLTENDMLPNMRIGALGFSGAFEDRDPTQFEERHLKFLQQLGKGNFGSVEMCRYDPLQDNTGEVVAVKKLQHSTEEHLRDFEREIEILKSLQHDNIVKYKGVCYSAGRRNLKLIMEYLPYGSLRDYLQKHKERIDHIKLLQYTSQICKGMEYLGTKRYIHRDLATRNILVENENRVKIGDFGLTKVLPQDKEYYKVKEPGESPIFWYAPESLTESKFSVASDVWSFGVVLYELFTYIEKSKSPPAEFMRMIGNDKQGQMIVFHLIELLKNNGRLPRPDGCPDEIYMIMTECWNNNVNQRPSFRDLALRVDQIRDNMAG

Sequence of Tyrosine-protein kinase JAK1 (Homo sapiens) (P23458 whole entry): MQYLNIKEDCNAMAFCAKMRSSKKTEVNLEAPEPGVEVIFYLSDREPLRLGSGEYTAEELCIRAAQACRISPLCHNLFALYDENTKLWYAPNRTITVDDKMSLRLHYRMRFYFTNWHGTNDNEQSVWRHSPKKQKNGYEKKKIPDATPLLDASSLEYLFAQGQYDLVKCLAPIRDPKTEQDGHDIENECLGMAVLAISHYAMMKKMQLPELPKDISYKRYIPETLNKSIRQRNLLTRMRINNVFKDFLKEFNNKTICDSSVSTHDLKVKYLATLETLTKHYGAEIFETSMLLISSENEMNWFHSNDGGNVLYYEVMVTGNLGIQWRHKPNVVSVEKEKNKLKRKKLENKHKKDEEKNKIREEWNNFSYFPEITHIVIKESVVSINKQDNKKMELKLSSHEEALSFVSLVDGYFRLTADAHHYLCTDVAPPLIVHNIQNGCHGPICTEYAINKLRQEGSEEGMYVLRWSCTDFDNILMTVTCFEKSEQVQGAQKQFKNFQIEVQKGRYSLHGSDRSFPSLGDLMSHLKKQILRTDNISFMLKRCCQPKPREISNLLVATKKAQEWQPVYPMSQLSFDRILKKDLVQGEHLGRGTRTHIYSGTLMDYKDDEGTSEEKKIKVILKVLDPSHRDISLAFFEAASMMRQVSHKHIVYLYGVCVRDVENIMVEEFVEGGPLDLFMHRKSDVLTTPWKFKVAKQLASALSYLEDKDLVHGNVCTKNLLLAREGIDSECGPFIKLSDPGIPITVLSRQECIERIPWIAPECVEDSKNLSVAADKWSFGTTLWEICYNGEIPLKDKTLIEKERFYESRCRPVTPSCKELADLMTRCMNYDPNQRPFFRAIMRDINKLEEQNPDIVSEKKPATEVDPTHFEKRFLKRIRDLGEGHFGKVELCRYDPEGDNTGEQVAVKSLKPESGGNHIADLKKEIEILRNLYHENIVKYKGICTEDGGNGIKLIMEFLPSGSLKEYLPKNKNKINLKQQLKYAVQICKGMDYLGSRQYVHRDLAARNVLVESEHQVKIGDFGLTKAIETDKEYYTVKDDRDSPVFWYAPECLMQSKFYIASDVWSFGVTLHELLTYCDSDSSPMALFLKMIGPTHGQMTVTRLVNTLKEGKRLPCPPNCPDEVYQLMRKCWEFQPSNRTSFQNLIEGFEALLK

SMILES	IC50 (cells [2])	IC50 (cells [6])	Ratio IC50 [1]	other results
COc1ccc2nc(Nc3nc(=O)cc(C)[nH]3)nc(C)c2c1			> 1	
Cc1cc(C)c2nc(Nc3nc(C)c(C)c(O)n3)nc(C)c2c1			> 7	
CCOc1ccc2nc(Nc3nc(=O)cc(-c4ccccc4)[nH]3)nc(C)c2c1	37.8 µM	19 µM		
Cc1nc(Nc2nc(=O)cc(-c3ccccc3)[nH]2)nc2cc3c(cc12)OCO3			> 3	
Cc1cc2nc(Nc3nc(=O)c(C)c(C)[nH]3)nc(C)c2cc1C			> 4	

Continued, in another order:

IC50 (cells [2])	IC50 (cells [6])	SMILES	Ratio IC50 [1]	other results
37.5 µM	17 µM	CCOc1ccc2nc(NC3=NC(C)=CC(C)(C)N3)nc(C)c2c1		inhibition [3]: inactive; inhibition [4]: inactive; IC50 (cells [5]): 29.4 µM; IC50 (FaDu): 18.8 µM; inhibition [7]: inactive
2.4 µM	3.2 µM	CC1=CC(C)(C)N=C(Nc2nc(C)c3cc(C)cc(C)c3n2)N1		IC50 (cells [5]): 1.2 µM; IC50 (FaDu): 1.9 µM
49.3 µM	12.8 µM	CC1=CC(C)(C)N=C(Nc2nc(C)c3cc(C)ccc3n2)N1		
